What is called logP is the decadic logarithm of the partition coefficient of the neutral form, usually between octanol and water. A high value points to a more lipophilic compound.

Each structure is given as a SMILES string.

Take `CC(C)C(O)C(C)C`: the logP turned out to be 2.31.

In the case of `CCC(CC)CO`, the lipophilicity (logP) was 1.78.

Compound `CC(C)CC(C)O` (stereo unspecified) displayed a logP of 1.67.

In turn, `CCCCC(O)CCCC` came in with a logP of 3.36.

On to `CCCCC(O)CC` (stereo unspecified), for which the logP came to 2.31.

`CCCCCCCCCCCCCCCO` gave a logP of 6.64.

The compound `CC(C)(C)CCO` came in with a logP of 1.57.

Turning to `CCCCCCCCCCCCCCO`, the logP came to 6.11.

For the compound `CCCC(C)(C)CO`, the logP amounted to 2.39.

As to `CCC(O)C(C)(C)C` (stereo unspecified), the logP was found to be 2.27.

The compound `CCC(C)(C)CO` returned a logP of 1.57.

In turn, `CC(C)CC(C)(C)O` showed a logP of 1.67.

As to `CCCCCC(O)CCC` (stereo unspecified), the log partition coefficient (logP) was found to be 3.36.

`CC(C)(C)CCCO` yielded a logP of 2.39.

As for `CC(C)CC(C)CO` (stereo unspecified), the logP worked out at 2.19.

`CCCCCCC(O)CC` (stereo unspecified) came in with a logP of 3.36.

Source of the values: the SangsterLogP compilation.
